Columns and labels:
[1] = biological target: T1, Dual specificity tyrosine-phosphorylation-regulated kinase 1A (Homo sapiens, UniProt Q13627); experiment: Inhibition of DYRK1A (unknown origin) using Ulight-MBP as substrate and ATP as co-substrate incubated for 40 mins and measured after 1 hr by TR-FRET assay
[2] = biological target: Cyclin-dependent kinase 9 (Homo sapiens, UniProt P50750); experiment: Inhibition of CDK9 (unknown origin) using Ulight-MBP as substrate and ATP as co-substrate incubated for 40 mins and measured after 1 hr by TR-FRET assay
[3] = biological target: T2, Dual specificity tyrosine-phosphorylation-regulated kinase 2 (Homo sapiens, UniProt Q92630); experiment: Inhibition of DYRK2 (unknown origin) using Ulight-MBP as substrate and ATP as co-substrate incubated for 40 mins and measured after 1 hr by TR-FRET assay
T2 sequence (Q92630 whole entry): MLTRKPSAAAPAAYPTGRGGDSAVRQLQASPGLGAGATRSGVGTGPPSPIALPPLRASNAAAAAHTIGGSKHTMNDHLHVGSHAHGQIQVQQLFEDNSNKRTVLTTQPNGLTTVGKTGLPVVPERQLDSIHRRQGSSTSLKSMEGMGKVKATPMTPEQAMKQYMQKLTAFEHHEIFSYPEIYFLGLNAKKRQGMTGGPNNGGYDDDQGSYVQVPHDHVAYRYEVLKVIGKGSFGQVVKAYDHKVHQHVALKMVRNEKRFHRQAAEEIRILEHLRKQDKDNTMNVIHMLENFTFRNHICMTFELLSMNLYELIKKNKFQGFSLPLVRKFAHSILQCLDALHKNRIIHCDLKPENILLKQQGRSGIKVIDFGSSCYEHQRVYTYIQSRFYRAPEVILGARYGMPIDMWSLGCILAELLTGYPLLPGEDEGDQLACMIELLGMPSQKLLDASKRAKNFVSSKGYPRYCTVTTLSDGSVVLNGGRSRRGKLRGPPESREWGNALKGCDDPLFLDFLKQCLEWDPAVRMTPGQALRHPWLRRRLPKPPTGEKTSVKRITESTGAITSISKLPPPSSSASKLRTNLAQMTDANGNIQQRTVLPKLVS

[4] = biological target: T1, Dual specificity tyrosine-phosphorylation-regulated kinase 1A; experiment: Inhibition of wild type full length DYRK1A (unknown origin) in human U2OS cells assessed as reduction in pSER520 autophosphorylation incubated for 5 hrs by western blot analysis; format: cell-based
RS4-11 [5] = experiment: Antitumor activity against human RS4-11 cells xenografted in BALB/c nu/nu mouse assessed as reduction in DYRK1A autophosphorylation of S520 residue at 6.25 mg/kg, po measured after 2 hrs by western blotting analysis relative to control; format: functional; parameters: scale not given: the % may be the effect or the level left
RS4-11 [6] = experiment: Antitumor activity against human RS4-11 cells xenografted in BALB/c nu/nu mouse reduction in DYRK1A autophosphorylation of S520 residue at 6.25 mg/kg, po measured after 6 hrs by western blotting analysis relative to control; format: functional; parameters: scale not given: the % may be the effect or the level left

Sequence of Cyclin-dependent kinase 9 (P50750 whole entry): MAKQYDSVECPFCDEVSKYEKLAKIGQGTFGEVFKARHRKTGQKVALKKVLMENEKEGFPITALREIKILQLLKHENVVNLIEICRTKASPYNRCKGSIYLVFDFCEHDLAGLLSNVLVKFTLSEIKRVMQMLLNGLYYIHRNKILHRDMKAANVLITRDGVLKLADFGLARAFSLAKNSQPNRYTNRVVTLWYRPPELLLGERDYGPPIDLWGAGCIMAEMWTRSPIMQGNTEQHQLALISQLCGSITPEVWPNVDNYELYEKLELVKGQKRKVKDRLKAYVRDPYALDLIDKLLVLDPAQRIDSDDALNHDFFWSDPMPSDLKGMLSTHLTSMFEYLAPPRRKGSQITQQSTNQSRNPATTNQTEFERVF

SMILES | IC50 [1] [nM] | IC50 [3] [nM] | also measured
Cc1nc2ccc(-c3cc(N)nc(N)c3)nc2n1C[C@H](C)Oc1ccccn1 | – | 117 | IC50 [2]: > 3000 nM; IC50 ([4]; read-out: IC50): > 300 nM
c1cc(-c2ccc3occc3c2)ccn1 | 320 | – | –
CNCC(=O)Nc1cc(-c2ccc3occc3c2)cc(N)n1 | 168 | – | –
COc1ccc(-c2ccnc(C)c2)cc1 | 670 | – | –
Cc1nc2ccc(-c3cc(N)nc(N)c3)nc2n1CCCC(F)(F)F | – | 10 | –
Cc1nc2ccc(-c3cc(N)nc(N)c3)nc2n1CCOc1cccc(Cl)n1 | – | 33 | IC50 [2]: 222 nM
Nc1cc(-c2ccc3oc(Cl)cc3c2)cc(N)n1 | 76 | – | IC50 [2]: 5430 nM; IC50 ([4]; u2os): Not Active
COc1ccc(-c2ccnc(N)c2)cc1 | 126 | – | –
Cc1nc2ccc(-c3cc(N)nc(N)c3)nc2n1CCOc1cccc(Br)n1 | – | 52 | IC50 [2]: 289 nM
Cc1cc(-c2ccc3occc3c2)cc(N)n1 | 77 | – | –
Cc1nc2ccc(-c3cc(N)nc(N)c3)nc2n1CCc1ccco1 | – | 6 | –
Nc1cc(-c2ccc3sccc3c2)cc(N)n1 | 137 | – | –
Cc1nc2ccc(-c3cc(N)nc(N)c3)nc2n1CCC1CCCCC1 | – | 9 | –
COc1ccc(-c2cc(N)nc(N)n2)cc1 | 158 | – | –
Cc1nc2ccc(-c3cc(N)nc(N)c3)nc2n1C[C@@H](C)Oc1ccccc1 | – | 46 | IC50 [2]: > 3000 nM; IC50 ([4]; read-out: IC50): 111 nM
Cc1nc2ccc(-c3cc(N)nc(N)c3)nc2n1C(C)(C)C | – | 6 | –
Cc1nc2ccc(-c3cc(N)nc(N)c3)nc2n1CCOc1ccccc1 | – | 9 | Activity (RS4-11 [5]): 59%; Activity (RS4-11 [6]): 25%
Cc1nc2ccc(-c3cc(N)nc(N)c3)nc2n1CC(F)F | – | 4 | –
COc1cc(-c2ccnc(N)c2)ccc1Cl | 218 | – | –
COCCCNc1cc(-c2ccc3occc3c2)cc(N)n1 | 96 | – | –
Cc1nc2ccc(-c3cc(N)nc(N)c3)nc2n1C1CCCC1 | – | 1 | –
c1cc(-c2ccc3occc3c2)cc(N2CCNCC2)n1 | 3560 | – | –
Cc1nc2ccc(-c3cc(N)nc(N)c3)nc2n1CC(F)(F)F | – | 6 | Activity (RS4-11 [5]): 93%; Activity (RS4-11 [6]): 95%
Cc1nc2ccc(-c3cc(N)nc(N)c3)nc2n1CCOc1ccccn1 | – | 34 | –
Nc1cc(-c2ccc3occc3c2)cc(NCCc2ccsc2)n1 | 189 | – | –
Cc1cc(-c2ccc(Cl)cc2)ccn1 | > 10000 | – | –
COCCCn1c(C)nc2ccc(-c3cc(N)nc(N)c3)nc21 | – | 5 | –
Cc1nc2ccc(-c3cc(N)nc(N)c3)nc2n1Cc1ccc(F)cc1 | – | 134 | IC50 ([4]; read-out: IC50): 3000 nM

Continued, in another order:

IC50 [1] [nM] | IC50 [3] [nM] | SMILES | also measured
19 | – | Nc1cc(-c2ccc3occc3c2)ccn1 | –
13 | – | Cn1cnc2ccc(-c3cc(N)nc(N)c3)nc21 | –
15 | – | Nc1cc(-c2ccc3ncnn3c2)cc(N)n1 | –
1 | 21 | Cc1oc2ccc(-c3cc(N)nc(N)c3)cc2c1C | IC50 [2]: 8840 nM; IC50 ([4]; read-out: IC50): 1650 nM
14 | – | Cn1cnc2cc(-c3cc(N)nc(N)c3)ccc21 | –
11 | – | Nc1cc(-c2ccc3c(c2)OCCO3)cc(N)n1 | –
19 | – | Cc1onc2ccc(-c3cc(N)nc(N)c3)cc12 | –
7 | 116 | Cc1nc2ccc(-c3cc(N)nc(N)c3)nc2n1C[C@@H](C)Oc1ccccn1 | IC50 [2]: > 3000 nM
17 | – | CNc1cc(-c2ccc3occc3c2)cc(N)n1 | –
8 | 22 | Cc1nc2ccc(-c3cc(N)nc(N)c3)nc2n1C[C@H](C)Oc1ccccc1 | IC50 [2]: > 3000 nM; IC50 ([4]; read-out: IC50): 73 nM
10 | – | Nc1cc(-c2ccc3occc3n2)cc(N)n1 | –
2 | – | Nc1cc(-c2ccn3nccc3n2)cc(N)n1 | –
10 | – | Nc1cc(-c2ccc3ncccc3c2)cc(N)n1 | –
16 | – | Nc1cc(-c2ccc3c(c2)CCO3)cc(N)n1 | –
42 | – | Nc1cc(-c2ccc3occc(=O)c3c2)cc(N)n1 | –
36 | – | Nc1cc(-c2ccc3occc3c2)nc(N)n1 | –
5 | 195 | Cc1nc2ccc(-c3cc(N)nc(N)c3)nc2n1C[C@@H](C)Oc1cccc(Br)n1 | IC50 [2]: 467 nM; IC50 ([4]; read-out: IC50): 44 nM
22 | – | Nc1cc(-c2ccc3ocnc3c2)cc(N)n1 | –
1 | – | Nc1cc(-c2ccc3ncsc3c2)cc(N)n1 | –
34 | – | Cc1cc2cc(-c3cc(N)nc(N)c3)ccc2o1 | IC50 [2]: > 10000 nM; IC50 ([4]; read-out: IC50): 1800 nM
14 | – | Nc1cc(-c2ccc3occc3c2)cc(N)n1 | IC50 [2]: 41 nM; IC50 ([4]; read-out: IC50): 500 nM
17 | – | Nc1cc(-c2ccc3nccn3c2)cc(N)n1 | –
10 | – | Nc1cc(-c2ccc3ncoc3c2)cc(N)n1 | –
22 | – | Nc1cc(-c2ccc3c(c2)CCO3)nc(N)n1 | –
